These results are taken from patent US20140107025A1, “OCULAR DRUG DELIVERY SYSTEM” (priority 2012, published 2014).

Series [1] relates to corneal epithelial defects in the eyes of New Zealand white rabbits. The experiment in a line: Rabbit corneal epithelial debridement model with healing impaired by topical dexamethasone (Example 1). The format is in vivo. The note with it: for eyes with epithelial defect completely closed/healed by day 5: topical QID OU, all eyes on dexamethasone 0.1% QID, rHGH 100 μg/mL, 50 μL drop. The source says:
A rabbit debridement model was used to assess the effect of topically applied rHGH on corneal epithelial defect closure in a model where epithelial closure was impaired by concomitantly administered topical steroids (Dexamethasone 0.1% QID). Standard epithelial defects were created in the eyes of nine New Zealand white rabbits by standard methods. Rabbits received topical dexamethasone QID (4×/day) to all 18 eyes. Rabbits were randomized to one of three treatment arms post surgery: a control arm of dexamethasone only QID OU (both eyes), a vehicle group of BSS (balanced salt solution) QID OU, and test article of rHGH QID OU. One drop (50 μL) of rHGH (reconstituted in Ringers Lactate to achieve a final concentration of 100 μg/mL) (n=3) was applied topically four times to both eyes. All eyes were also treated with one drop of an antibiotic solution after the surgical defect creation. Photographic assessment (twice daily) and fluorescein assessment were used to determine the speed and quality of epithelial defect closure. The corneal defect size was estimated in the photographs by obtaining the pixel count of the defect and dividing by the pixel count of the cornea. The animals were sacrificed on day 5.
The solid black bars represent percent of eyes completely healed when treated with rHGH administered topically whereas the shaded bars represent percent of eyes completely healed when treated with BSS (balanced saline solution). Over the course of this study, no eyes were completely healed when treated with dexamethasone alone.

Series [2] has as its system corneal epithelial defects in New Zealand white rabbits. The series is described as follows: Corneal epithelial impaired healing debridement model, rHGH in HYSTEM/GSSG gel (Example 3). The format is in vivo. Particulars: topical dexamethasone 0.1% 4x/day for 7 days; normal healing 4-5 days; some rabbits not completely closed at 7 days. An excerpt:
A corneal epithelial impaired healing debridement model was developed by utilizing a validated epithelial debridement procedure and treating immediately postoperative with topical steroids (dexamethasone). The corneal epithelial defects were created surgically in a standardized and reproducible manner in both eyes. The normal healing for epithelial defects in normal healthy rabbits is 4-5 days. […] This model confirmed delayed epithelial wound healing in New Zealand white rabbits.
Rabbits were randomized post surgical intervention to maintain a masked study. The examiner was masked to the treatment arm.
Recombinant Human Growth Hormone (rHGH) was reconstituted and prepared as instructed, and was delivered topically to the eye via a crosslinked hyaluronic acid gel polymer HYSTEM (with glutathione GSSG) at a concentration of 4 ug/day in a 50 ul drop BID, for 7 days (see Example 2). The comparator arms are shown in Table 1: (1) the polymer HYSTEM with GSSG but without rHGH (group 1) and (2) dexamethasone alone (no polymer and no rHGH) (group 3). In vivo clinical exams were performed twice daily to determine percent corneal healing, corneal defect size, and percent of eyes (cornea) completely healed.

Regarding “rHGH: Recombinant human growth hormone; hydrophilic 22 Kda protein of 191 amino acids; Genotropin used in Example 2”, the “eyes starting to heal as quickly as Day 2” value in series [1] (Day 2, rHGH 100 μg/mL topical QID plus dexamethasone) turned out to be 10%. In addition, the “speed of epithelial defect closure (photographic assessment)” value in series [1] (comparison of treatment arms over 5 days) is on record as “most rapid healing”. Besides, in series [1], the “eyes with epithelial defect completely closed/healed by day 5” value is 9/9. Besides, the tolerability of dosing result in series [1] (topical ocular dosing QID, 5 days) was “tolerated the dosing well without clinical concerns”.

`C[C@@H]1C[C@H]2[C@@H]3CCC4=CC(=O)C=C[C@]4(C)[C@@]3(F)[C@@H](O)C[C@]2(C)[C@@]1(O)C(=O)CO` [dexamethasone, reference compound]: the “time of healing of epithelial defects” value in series [2] amounted to 7 days. Further, in series [1], the “eyes with epithelial defect completely closed/healed by day 5” value is recorded as 0/9.
